Data taken from patent US20100239556A1, “PROMOTING ECM PRODUCTION BY FIBROBLAST CELLS AND/OR PROMOTING MIGRATION OF FIBROBLAST CELLS IN A BIOLOGICAL SYSTEM” (TGR BioScience Pty Ltd., priority 2006, published 2010).

B1: horse radish peroxidase (protein, UniProt P00433 31-338, looked up)
Peroxidase C1A: QLTPTFYDNSCPNVSNIVRDTIVNELRSDPRIAASILRLHFHDCFVNGCDASILLDNTTSFRTEKDAFGNANSARGFPVIDRMKAAVESACPRTVSCADLLTIAAQQSVTLAGGPSWRVPLGRRDSLQAFLDLANANLPAPFFTLPQLKDSFRNVGLNRSSDLVALSGGHTFGKNQCRFIMDRLYNFSNTGLPDPTLNTTYLQTLRGLCPLNGNLSALVDFDLRTPTIFDNKYYVNLEEQKGLIQSDQELFSSPNATDTIPLVRSFANSTQTFFNAFVEAMDRMGNITPLTGTQGQIRLNCRVVNSNS

Legend:
dermis = assay: Fibrogenic response after intradermal injection; format: in vivo, Sprague-Dawley rats
Experimental: Groups of up to 4-8 female Sprague-Dawley rats were lightly anaesthetized and the dorsum shaved. At different sites on their dorsum, each rat received a bolus, intradermal injection of 4 doses of a protein with peroxidase activity (LP, […]; HRP, 1.25-25 μg; SBP, 1.25-25 μg; or micro-peroxidase [MP], 5-125 μg), a vehicle control or TGFβ2 as a positive control. Arthromyces ramosus peroxidase (ARP) was also injected at one dose of 25 μg. Proteins with peroxidase activity were injected in a volume of 50 μl which was sufficient to create a small blister in the skin that resolved within a few minutes. Across the group of rats, each dose of proteins with peroxidase activity was injected into each of the different injection sites to control for any site-related, intra-rat variation. The rats were returned to their cage and left alone for 3 days after which they were killed by CO2 asphyxiation and the skin at the injection sites collected for analysis. The skin at the injection sites was excised using a 6 mm biopsy punch with each piece bisected and fixed in 10% buffered formalin. Fixed tissue was processed for histological assessment by graded dehydration and mounting in paraffin blocks. Blocks were sectioned and sections stained with haematoxylin and eosin (H&E) and Masson's trichrome for qualitative analysis by an experienced pathologist. H&E stained sections were scored for the “fibroblast reaction” (1+-4+) to reflect the number of fibroblast cells identified at the injection site, with 4+ representing the greatest response. H&E and Massons trichrome stained sections were used to evaluate the amount of deposited, collagen-rich extracellular matrix (ECM) that was associated with the fibroblast reaction at each injection site. The collagen-rich ECM deposition was scored 1+-3+ with 3+ representing the greatest response. The scores were combined across the group of rats and statistical analysis performed using a Kruskal-Wallis one way analysis of variance on ranks (ANOVA) followed by post-hoc t-test comparing the response of the proteins with peroxidase activity to the control using Dunn's or Dunnett's method, p<0.05 was considered significant.

[1] = tested on: adult primary fibroblast cells and HFF cells; assay: Organisation of collagen fibers on coverslips (collagen I immunohistochemistry); format: cell-based, human; conditions: treated up to 7 days
Experimental: ECM, rather than disorganized ECM which would increase the risk of scar formation within the dermis and contribute to the generation of structurally and functionally impaired replacement tissue, additional experiments were performed to visualize the collagen fibers formed by fibroblast cells stimulated with proteins having peroxidase activity. These experiments involved growing adult primary fibroblast cells and HFF cells on microscope slide coverslips placed into each well of six well tissue culture plates. Each well containing a coverslip was seeded with 1.5×10^5 cells and after one week of culture, the cells were treated with a range of proteins having peroxidase activity for up to 7 days. At the end of the experiment, the cell media was removed and the cells and cell-associated ECM fixed by the addition of 10% formalin. The coverslips were removed from the tissue culture plate and stained immunohistochemically for collagen I using the method outlined in Example 3 for the SMA immunohistochemistry with the variation that 5 μg/ml rabbit anti Collagen-I (Rocklands Immunochemicals) was used as the primary antibody.

[2] = tested on: human foreskin fibroblast cells (HFF); assay: Soluble collagen I, III and VI in HFF conditioned media (direct coat ELISA); format: cell-based; conditions: for ECM protein levels in the media of HFF cells: 6 hour treatment, following 72 hours; for collagen I concentration in the media: ARP, HRP, SBP 12.5 μg/ml, LP 160 μg/ml, MP 250 μg/ml, untreated control 0.08 μg/ml; for collagen III levels: untreated control 0.11 μg/ml; for collagen VI in the cell media: untreated control 0.03 ug/ml; for collagen VI levels: both 5 and 7 days; for increase in collagen VI, steady state: 72 hours (ARP response not statistically significant, p=0.08)
Experimental: Primary human foreskin fibroblast cells (HFF) were seeded into 96 well plates at a density of 1.2×10^4 cells/well and cultured overnight in 10% fetal bovine serum/Dulbecco's minimum essential media (10% FBS/DMEM) at 37° C. and 5% CO2. The cells were then starved overnight in serum free DMEM and triplicate wells treated for six hours with a range of doses of proteins with peroxidase activity; horse radish peroxidase (HRP; 0.2-50 ug/ml), Arthromyces ramosus peroxidase (ARP; 0.2-50 ug/ml), microperoxidase (MP; 8-500 ug/ml), soy bean peroxidase (SBP; 0.2-100 ug/ml) and lactoperoxidase (LP; 10-310 ug/ml) (all obtained from Sigma-Aldrich). At the end of the six hour treatment period, the media was aspirated and replaced with fresh serum free DMEM and the cells cultured for a further 72 hours. […] This assay measures the reduction of oxidized, blue nonfluorescent Alamar Blue reagent to a pink fluorescent dye in the cell medium, such that the higher the amount of reduction, the greater the cell number and/or activity (O'Brien Eur J Biochem 267 2000). Briefly, cells were bathed in a 10% Alamar Blue/phosphate-buffered saline (PBS) solution for 30-60 minutes and fluorescence measured at wavelengths of 485 nm excitation and 595 nm emission using a Wallac Victor Multilabel HTS counter. Relative fluorescent units (RFU) for each sample were normalized to control wells (DMEM only treated cells) and data expressed as mean±standard error of the mean (sem) for triplicate wells. Experiments were repeated at least three times with the combined data from all experiments shown.
The amount of soluble collagen types I, III, and VI in HFF conditioned media was measured by a direct coat ELISA method using standard curves constructed from purified human collagen I, III or VI (extracted from human placenta; col I, BD Biosciences; col III and VI, Rocklands Immunochemicals) and fibronectin (extracted from human plasma, Chemicon). Samples and standards (20 μl/well) were added to a 384 well spectraplate (Packard BioScience) and left at room temperature (RT) overnight. The spectraplate was then washed 6 times with PBS-tween 0.05% (PBS-T) and 2.5% bovine serum albumin (BSA)/PBS blocking solution added to each well and the plate incubated for 1 hour at RT. The plate was then washed 6 times with PBS-T and primary antibody (0.25 μg/ml rabbit-anti-human-collagen I polyclonal; 2 μg/ml rabbit-anti-human-collagen III polyclonal; 0.25 μg/ml rabbit-anti-human-collagen VI polyclonal; 0.2 μg/ml rabbit-anti-human-fibronectin polyclonal, all from Rockland Immunochemicals) in 5% non-fat dairy milk added to each well for four hours at RT. After washing (6×PBS-T), europium tagged anti-rabbit secondary antibody (0.5 μg/ml 1% BSA/PBS; Wallac Oy) was added for 1 hour at RT. After a final wash (6×PBS-T), enhancement solution was added for at least 10 minutes and fluorescence measured at excitation 340 nm and emission 615 nm using a Wallac Victor Multilabel HTS counter. The respective ECM concentration of each sample was determined from the standard curve (μg/ml) and normalized to control wells (DMEM only treated cells) with the mean±sem for triplicate wells calculated. Experiments were repeated at least three times with the combined data from all experiments shown.

[3] = intradermal, 3 days, over the doses tested
[4] = 50 μg and 125 μg, 3 days, p<0.05
[5] = doses between 6.25 and 50 μg/ml

Molecule | deposition of collagen-rich ECM versus control (dermis; [3]) | fibroblast reaction / tissue fibroblast content at the injection site versus control (dermis; [3]) | collagen fibers in the cell-associated ECM [1] | ECM protein levels in the media of HFF cells [2] | collagen I concentration in the media ([2]; 5 days) [µg/mL] | collagen III levels ([2]; 5 days) [µg/mL] | collagen VI in the cell media ([2]; 7 days) [µg/mL] | collagen VI levels [2] | increase in collagen I compared to controls ([2]; 0.4 μg/ml, 72 hours) [fold] | increase in collagen VI, steady state [2, 5] | other results
microperoxidase [MP] | stimulated the deposition of collagen-rich ECM in a significant, dose dependent manner | significantly increased the tissue fibroblast content | collagen was not the major ECM protein deposited | increased ECM protein levels dose dependently | 0.17 |  |  |  |  |  | increase in collagen VI ([2]; any dose used, 72 hours): did not induce a significant increase
lactoperoxidase [LP] | dose-dependent effect | dose-dependent increase in the fibroblast reaction |  | increased ECM protein levels dose dependently | 1.1 | 0.18 | 0.07 | increased the collagen VI levels |  |  | deposition of collagen-rich ECM versus control (dermis; [4]): significant increase compared to the control; fibroblast reaction versus vehicle control (dermis; [4]): statistically significant response; number of fibroblasts present at the injection site (H&E images) (dermis; LP 125 μg, TGFβ 0.5 μg, 3 days): profound increase in the number of fibroblasts; increase in collagen I compared to controls ([2]; 80 μg/ml, 6 h treatment, 72 hours): 4 fold; increase in collagen I compared to controls ([2]; 310 μg/ml, 72 hours): 8 fold; increase in collagen VI levels ([2]; 160 and 310 μg/ml, 72 hours): 2 fold; changes in collagen III levels (non-significant) ([2]; doses from 10-310 μg/ml, 72 hours): 1.5-1.7 fold
soy bean peroxidase [SBP] | markedly increased | markedly increased the tissue fibroblast content |  | increased ECM protein levels dose dependently |  | 0.15 | 0.09 | increased the collagen VI levels | 1.6 |  | deposition of collagen-rich ECM versus control (dermis; 5-25 μg, 3 days, p<0.05): statistically significant response; tissue fibroblast content versus control (dermis; 5-25 μg, 3 days, p<0.05): statistically significant response; increase in collagen VI ([2]; 0.4 μg/ml, 72 hours): 1.2 fold; increase in collagen VI ([2]; 50 μg/ml, 72 hours): 5.4 fold; increase in collagen I compared to controls ([2]; 25 and 50 μg/ml, 72 hours): 10.5 fold; increase in collagen III, steady state ([2]; between 12.5 and 50 μg/ml, 72 hours): 2.1-2.3 fold
Arthromyces ramosus peroxidase [ARP] |  |  |  | increased ECM protein levels dose dependently | 0.6 |  | 0.11 | increased the collagen VI levels | 1.4 | 2 fold | deposition of collagen rich ECM, histology score (1+-3+) (dermis; 25 μg, 72 hours): two; fibroblast reaction, histology score (1+-4+) (dermis; 25 μg, 72 hours): two; increase in collagen I compared to controls ([2]; 25 μg/ml, 72 hours): 5.8 fold; decrease in collagen III compared to control levels ([2]; 25 and 50 μg/ml, 72 hours): 50%; collagen I concentration in the media ([2]; 7 days): 0.6 µg/mL; increase in collagen III ([2]; any dose used, 72 hours): did not induce a significant increase
B1 | markedly increased | markedly increased the tissue fibroblast content | strongly stained, parallel collagen fibers | increased ECM protein levels dose dependently |  | 0.22 | 0.13 | increased the collagen VI levels |  | 3-3.5 fold | deposition of collagen-rich ECM versus control (dermis; 25 μg, 3 days, p<0.05): statistically significant response; tissue fibroblast content versus control (dermis; 25 μg, 3 days, p<0.05): statistically significant response; increase in collagen I compared to controls ([2]; 0.2 μg/ml, 72 hours): 1.5 fold; increase in collagen VI compared to controls ([2]; 1.56 μg/ml, 72 hours): 2 fold; increase in collagen III compared to controls ([2]; 3.12 μg/ml, 72 hours): 3 fold; increase in collagen I compared to controls ([2]; 50 μg/ml, 72 hours): 10 fold; increase in collagen III compared to controls ([2]; 25 and 50 μg/ml, 72 hours): 4 fold; collagen III level ([2]; 7 days, 12.5 μg/ml, untreated control 0.06 μg/ml): 0.3 µg/mL; increase in collagen I, steady state response ([2]; doses between 6.25 and 50 μg/ml, 72 hours): 9-10 fold
